Measurements taken from the supplement of paper PMC10307832.

Key:
Experiment in all cases: relative viability (nuclei count vs DMSO), 5 days (fraction); higher = more cells survive
VE-821 + Decitabine = compound: CS(=O)(=O)c1ccc(-c2cnc(N)c(C(=O)Nc3ccccc3)n2)cc1 [VE-821] + Nc1ncn([C@H]2C[C@H](O)[C@@H](CO)O2)c(=O)n1 [Decitabine] (partner 2 µM)
In short: (§1)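 Nuclei were stained with Hoechst during a one-step fixation (final 0.05% Triton X-100, 1% formaldehyde, 1 ug/ml Hoechst) carried out 5 days after dosing, then counted on 4× images. The cells, lung cancer lines in 1536-well plates, had been dosed by pin tool the day after seeding with one drug alone or a fixed anchor-drug dose plus five library-drug doses (not always all listed) in √10 steps. Relative viability is the nuclei count in treated wells divided by that in vehicle wells, and each value is the median of duplicate plates.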

Vismodegib + OSI-027 = compound: CS(=O)(=O)c1ccc(C(=O)Nc2ccc(Cl)c(-c3ccccn3)c2)c(Cl)c1 [Vismodegib] + COc1cccc2cc(-c3nc([C@H]4CC[C@H](C(=O)O)CC4)n4ncnc(N)c34)[nH]c12 [OSI-027] (partner 0.5 µM)
In short: as §1

Vismodegib + Palbociclib = compound: CS(=O)(=O)c1ccc(C(=O)Nc2ccc(Cl)c(-c3ccccn3)c2)c(Cl)c1 [Vismodegib] + CC(=O)c1c(C)c2cnc(Nc3ccc(N4CCNCC4)cn3)nc2n(C2CCCC2)c1=O [Palbociclib] (partner 0.5 µM)
In short: as §1

Ruxolitinib + Olaparib = compound: N#CC[C@H](C1CCCC1)n1cc(-c2ncnc3[nH]ccc23)cn1 [Ruxolitinib] + O=C(c1cc(Cc2n[nH]c(=O)c3ccccc23)ccc1F)N1CCN(C(=O)C2CC2)CC1 [Olaparib] (partner 8 µM)
In short: as §1

Q: UMC-11 was tested. Which relative viability (VE-821 + Decitabine; first compound 0.08 µM) did it give?
A: 0.687

Q: What about the relative viability (VE-821 + Decitabine; first compound 0.253 µM) of the same cell line?
A: 0.617

Q: And the relative viability (VE-821 + Decitabine; first compound 0.8 µM)?
A: 0.583

Q: And the relative viability (VE-821 + Decitabine; first compound 2.53 µM)?
A: 0.664

Q: And the relative viability (VE-821 + Decitabine; first compound 8 µM)?
A: 0.479

Q: And the relative viability (Vismodegib + OSI-027; first compound 0.08 µM)?
A: 0.499

Q: What about the relative viability (Vismodegib + OSI-027; first compound 0.253 µM) of the same cell line?
A: 0.468

Q: What about the relative viability (Vismodegib + OSI-027; first compound 0.8 µM) of the same cell line?
A: 0.408

Q: And the relative viability (Vismodegib + OSI-027; first compound 2.53 µM)?
A: 0.43

Q: What about the relative viability (Vismodegib + OSI-027; first compound 8 µM) of the same cell line?
A: 0.46

Q: And the relative viability (Vismodegib + Palbociclib; first compound 0.08 µM)?
A: 0.343

Q: What about the relative viability (Vismodegib + Palbociclib; first compound 0.253 µM) of the same cell line?
A: 0.346

Q: What about the relative viability (Vismodegib + Palbociclib; first compound 0.8 µM) of the same cell line?
A: 0.298

Q: And the relative viability (Vismodegib + Palbociclib; first compound 2.53 µM)?
A: 0.351

Q: What about the relative viability (Vismodegib + Palbociclib; first compound 8 µM) of the same cell line?
A: 0.344

Q: What about the relative viability (Ruxolitinib + Olaparib; first compound 0.08 µM) of the same cell line?
A: 0.37

Q: And the relative viability (Ruxolitinib + Olaparib; first compound 0.253 µM)?
A: 0.894

Q: And the relative viability (Ruxolitinib + Olaparib; first compound 0.8 µM)?
A: 1.03

Q: And the relative viability (Ruxolitinib + Olaparib; first compound 2.53 µM)?
A: 0.366

Q: And the relative viability (Ruxolitinib + Olaparib; first compound 8 µM)?
A: 0.315
